From PubChem BioAssay (NCI) come the findings set out here.

Some test systems named below: 786-0 renal; TK-10 renal; MDA-MB-231 breast; RPMI-8226 leukemia; SK-OV-3 ovarian; CAKI-1 renal; A549 NSCLC; HS 578T breast.
Holding throughout (assay): growth of human tumour cells (NCI), 48 h

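Interpolation was linear, between the two tested concentrations surrounding the appropriate level; five concentrations were tested over 48 hours in 96-well plates. The concentration for 50% growth inhibition is given as GI50. TGI: concentration producing complete growth inhibition.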

For `COc1ccccc1/C=C\C(=O)c1ccccc1`, the GI50 is 15 µM with 786-0 renal; 12.5 µM with TK-10 renal; 12.5 µM with MDA-MB-231 breast; 2.8 µM in the assay on RPMI-8226 leukemia; 13.7 µM with SK-OV-3 ovarian; 3.68 µM in the assay on CAKI-1 renal. Besides, the GI50 in the assay with A549 NSCLC is 19.5 µM. The TGI in the assay on 786-0 renal is 28.4 µM; in the assay with TK-10 renal, 25.2 µM; in the assay with MDA-MB-231 breast it was 30 µM; in the assay with RPMI-8226 leukemia, 24.7 µM; in the assay on SK-OV-3 ovarian, 26.5 µM; in the assay on CAKI-1 renal it was 12.2 µM. The same molecule showed a TGI in the assay with A549 NSCLC of 41.9 µM.
Take `COc1ccc(NC(=O)c2sc3nc4c(cc3c2N)CCCC4)cc1`: the GI50 in the assay with 786-0 renal was 0.36 µM; in the assay on HS 578T breast it was 0.567 µM; with MDA-MB-231 breast, 5.26 µM; in the assay with RPMI-8226 leukemia, 0.484 µM; in the assay on SK-OV-3 ovarian it was 1.92 µM; in the assay on A549 NSCLC it was 1.18 µM. Besides, the TGI in the assay with 786-0 renal is 30.5 µM; with HS 578T breast it was above 100 µM; with MDA-MB-231 breast, above 100 µM; in the assay on RPMI-8226 leukemia it was 12.1 µM; with SK-OV-3 ovarian it was above 100 µM; in the assay on A549 NSCLC, above 100 µM.
On to `O=C(Nc1ccc(Cl)cc1)Nc1ccccc1CNc1nc(Nc2ccc(OCCN3CCCC3)cc2)ncc1Cl`, for which the GI50 with 786-0 renal is 0.871 µM; with TK-10 renal it was 0.982 µM; with HS 578T breast it was 7.02 µM; with MDA-MB-231 breast, 0.888 µM; in the assay on RPMI-8226 leukemia, 1.24 µM; with CAKI-1 renal it was 7.44 µM. In addition, the GI50 with A549 NSCLC is 1.49 µM. Further, the TGI in the assay on 786-0 renal is 1.61 µM; with TK-10 renal, 1.91 µM; with HS 578T breast it was 19 µM; with MDA-MB-231 breast, 1.84 µM; in the assay with RPMI-8226 leukemia, 3.19 µM; in the assay on CAKI-1 renal, 14 µM. The molecule further had a TGI in the assay with A549 NSCLC of 4.49 µM.
For `Nc1ccn([C@@H]2C(F)=C(CO)[C@@H](O)[C@H]2O)c(=O)n1`, the GI50 was 0.726 µM in the assay with 786-0 renal; 6.73 µM with TK-10 renal; 12.3 µM in the assay with HS 578T breast; 2.73 µM with MDA-MB-231 breast; 4.95 µM in the assay with SK-OV-3 ovarian; 7.1 µM with CAKI-1 renal. Moreover, the GI50 in the assay with A549 NSCLC was 0.42 µM. Moreover, the TGI in the assay with 786-0 renal, in the assay on TK-10 renal, in the assay on HS 578T breast, in the assay with MDA-MB-231 breast, in the assay on SK-OV-3 ovarian and with CAKI-1 renal was above 100 µM each time. This molecule also returned a TGI with A549 NSCLC above 100 µM.
As to `COc1cc2cccc(N=Cc3c(Br)ccc(OC)c3OC(C)C)c2cc1OC`, the TGI is 69.9 µM with 786-0 renal; above 100 µM in the assay with TK-10 renal; 63.7 µM in the assay on RPMI-8226 leukemia; above 100 µM in the assay with SK-OV-3 ovarian; 70.2 µM in the assay with CAKI-1 renal; above 100 µM in the assay with A549 NSCLC.
For `O=C(/C=C/c1cn(-c2ccccc2)nc1-c1ccc([N+](=O)[O-])cc1)c1ccc(Cl)cc1`, the GI50 in the assay with 786-0 renal was 3.94 µM; in the assay with TK-10 renal, 3.09 µM; in the assay on HS 578T breast it was 1.92 µM; in the assay on MDA-MB-231 breast, 2.9 µM; with SK-OV-3 ovarian, 7.83 µM; in the assay on CAKI-1 renal it was above 21.3 µM. Also, the TGI with 786-0 renal is 55.3 µM; in the assay with TK-10 renal it was 13.4 µM; with HS 578T breast it was 5.64 µM; in the assay on MDA-MB-231 breast it was above 100 µM; in the assay with SK-OV-3 ovarian, above 77.3 µM; with CAKI-1 renal it was above 100 µM.
As to `COc1ccc2c(c1)nc1n2C(c2ccc(F)cc2)SC1` (stereo not drawn), the GI50 with 786-0 renal was 60.8 µM; in the assay with TK-10 renal, 22.8 µM; with HS 578T breast, 28.3 µM; in the assay on RPMI-8226 leukemia, 14.8 µM; in the assay on SK-OV-3 ovarian, 22.4 µM; in the assay with CAKI-1 renal, 26.2 µM. The GI50 with A549 NSCLC is 25.4 µM. In addition, the TGI with 786-0 renal is above 100 µM; in the assay with TK-10 renal it was above 100 µM; with HS 578T breast, 70.5 µM; in the assay on RPMI-8226 leukemia it was 66.3 µM; in the assay on SK-OV-3 ovarian it was above 100 µM; in the assay on CAKI-1 renal, 74.5 µM. In addition, in the assay with A549 NSCLC, the TGI was above 100 µM.
For the molecule `NC(N)=N/N=C/c1c(-c2ccc(Cl)c([N+](=O)[O-])c2)nc2n1CCS2`, the GI50 is 4.18 µM in the assay with 786-0 renal; 2.88 µM in the assay with MDA-MB-231 breast; 3.66 µM in the assay on RPMI-8226 leukemia; 24.7 µM in the assay with SK-OV-3 ovarian; 13.5 µM with CAKI-1 renal; 16.1 µM with A549 NSCLC. In addition, the TGI was found to be 15.3 µM in the assay with 786-0 renal; 8.86 µM with MDA-MB-231 breast; 10.9 µM with RPMI-8226 leukemia; 75.1 µM with SK-OV-3 ovarian; 28 µM in the assay on CAKI-1 renal; 77.9 µM in the assay on A549 NSCLC.
In the case of `C=C(CNCCc1ccc(O)cc1)[C@@H]1CC[C@]2(CO)CC[C@]3(C)[C@H](CC[C@@H]4[C@@]5(C)CCC(N)C(C)(C)[C@@H]5CC[C@]43C)[C@@H]12` (stereo partly drawn), the GI50 in the assay with 786-0 renal is 1.52 µM; in the assay on TK-10 renal, 1.73 µM; in the assay with MDA-MB-231 breast, 1.11 µM; in the assay with RPMI-8226 leukemia, 1.44 µM; in the assay on SK-OV-3 ovarian it was 1.84 µM; in the assay on CAKI-1 renal it was 1.59 µM. In the assay with A549 NSCLC, the GI50 was 1.66 µM. Further, the TGI came out at 3 µM with 786-0 renal; 3.22 µM in the assay with TK-10 renal; 2.38 µM in the assay with MDA-MB-231 breast; 4.04 µM in the assay with RPMI-8226 leukemia; 3.34 µM in the assay on SK-OV-3 ovarian; 3.1 µM in the assay with CAKI-1 renal. Moreover, the TGI with A549 NSCLC was 3.13 µM.
For `c1cnc2[nH]cc(-c3csc(-c4cn(CCCN5CCCCC5)c5ccccc45)n3)c2c1`, the GI50 was 1.63 µM with 786-0 renal; 2.22 µM in the assay on TK-10 renal; 2.34 µM with HS 578T breast; 1.63 µM in the assay with MDA-MB-231 breast; 2.08 µM in the assay on RPMI-8226 leukemia; 1.8 µM with SK-OV-3 ovarian. Further, in the assay on A549 NSCLC, the GI50 was 1.97 µM. In addition, the TGI is 3.06 µM in the assay with 786-0 renal; 3.79 µM in the assay with TK-10 renal; 7.22 µM with HS 578T breast; 3.11 µM in the assay with MDA-MB-231 breast; 4.63 µM with RPMI-8226 leukemia; 3.36 µM in the assay on SK-OV-3 ovarian. This molecule came in with a TGI with A549 NSCLC of 3.63 µM.
On to `CC(=O)[CH-]C(=O)c1ccccc1.CC(=O)[CH-]C(=O)c1ccccc1.[CH2-]CCC.[CH2-]CCC.[Sn+4]`, for which the GI50 in the assay with 786-0 renal was 1.09 µM; in the assay with TK-10 renal, 1.06 µM; in the assay on RPMI-8226 leukemia, 0.22 µM; in the assay on SK-OV-3 ovarian, 2.27 µM; in the assay on CAKI-1 renal it was 0.322 µM; in the assay on A549 NSCLC, 1.93 µM. Also, the TGI in the assay on 786-0 renal turned out to be 2.28 µM; with TK-10 renal it was 2.31 µM; with RPMI-8226 leukemia it was 0.567 µM; with SK-OV-3 ovarian it was 3.99 µM; with CAKI-1 renal, 1.22 µM; with A549 NSCLC, 4.13 µM.
